From patent publication US20100240642A1, “1H-Indole-2-Carboxylic Acid Derivatives Useful As PPAR Modulators” (SMITHKLINE BEECHAM CORPORATION, priority 2006, published 2010) come the findings set out here.

Like-named read-outs stand apart in the source and are kept apart here.

In this assay the target is T1, hPPARγ receptor (Homo sapiens, UniProt P37231).
T1 construct: expressed in transfected cells; host or cells: CV-1 (African Green Monkey kidney, ATCC CCL-70)
T1 sequence (P37231 172-475 isoform P37231-2): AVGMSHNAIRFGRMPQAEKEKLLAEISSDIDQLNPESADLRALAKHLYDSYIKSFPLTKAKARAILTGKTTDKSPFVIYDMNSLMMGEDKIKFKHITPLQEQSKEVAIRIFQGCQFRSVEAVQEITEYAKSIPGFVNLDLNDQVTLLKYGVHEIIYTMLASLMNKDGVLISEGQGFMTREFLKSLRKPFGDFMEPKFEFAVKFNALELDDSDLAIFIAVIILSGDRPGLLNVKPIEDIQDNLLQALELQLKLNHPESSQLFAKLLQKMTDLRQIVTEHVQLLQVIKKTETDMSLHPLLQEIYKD
As to the kind of experiment: PPARγ Cell-based luciferase assay. From the text: Plasmids—PCR primers containing Kpnl and BamHI restriction sites were used to amplify PPARγ ligand binding domain (LBD) fragment (172-475) from a full-length human clone. The LBD fragment was ligated into the multiple cloning site of pFA-CMV (Stratagene). The resulting construct (pFA-CMV-GAL4-hPPARγLBD carried a fusion of the LBD with the yeast-derived GAL4 DNA-binding domain under the control of the CMV immediate early promoter. Reporter construct UAStkLuc carries a single 17 bp (CGGAGTACTGTCCTCCG) upstream activating sequence (UAS), the tk minimal promoter, and the firefly luciferase gene. The integrity of each construct was confirmed by diagnostic restriction digestion and by sequencing. Plasmid DNA was prepared using Qiagen Maxi-Prep kits.
PPARγ Cell-based luciferase assay—African Green Monkey kidney cell line CV-1 (ATCC CCL-70) was maintained in Dulbecco's Modified Eagle's Medium (D-MEM) containing 10% fetal bovine serum, 2 mM glutamine, and 1% penicillin/streptomycin (pen/strep). In preparation for luciferase assays, CV-1 cells were grown in charcoal-stripped cell medium containing D-MEM/F-12 medium supplemented with 5% or 3% dextran-treated/charcoal-stripped (CS) fetal bovine serum, 2 mM glutamine, with or without 1% pen/strep, as described below. CS fetal bovine serum was purchased from Hyclone; all other cell culture reagents were from Gibco.
The luciferase protocol is a multi-day procedure. On day 1, confluent cells in maintenance medium were subcultured 1:10 into T-175 cm^2 flasks containing 50 mL of 3% CS medium with pen/strep. These flasks were allowed to incubate at 5% CO2 and 37° C. for 72 hours.
Cells were harvested by trypsinization and then transfected using FuGENE (Roche) according to the manufacturer's specifications. Briefly, each transfection contained 0.55 μg pFA_CMV_GAL4_hPPARγ_LBD plasmid, 10.9 μg UAStkLUC, and 24 μg pBluescript (carrier DNA). Plasmid DNA was mixed with FuGENE in OptiMEM-1 medium and incubated for 30 min at room temperature. During this incubation, cells were harvested into 3% CS medium without pen-strep and dispensed at 14 million cells per T-175 cm^2 flask. Transfection mixes were added to the flasks and incubated overnight at 5% CO2 and 37° C.
Transfected cells were added to 384-well plates containing pharmacological agents. Rosiglitazone standard was reconstituted in DMSO at 1 mM. For 11-point dose-response experiments, the compounds were 3-fold serially diluted in DMSO and then stamped to 384-well assay plates (NUNC, catalog #164564) at 0.5 μL/well using a Beckman FX. DMSO and agonist control compound Rosiglitazone (1 mM) were each stamped at 0.5 μL/well to columns 23 and 24, respectively, of the 384-well plates. Transfected cells were harvested in 5% CS medium with pen/strep and dispensed at 10,000 cells/well (50 μL) onto the prepared 384-well compound plates using a Titertek Multidrop. Following overnight incubation at 5% CO2 and 37° C., Steady-Glo reagent (Promega) was added to the assay plates using a Multidrop. Plates were incubated for 10 min to ensure complete cell lysis and read in a ViewLux (PerkinElmer). […] Partial agonism is defined here as 20-80% activation (relative to full agonist rosiglitazone) at concentrations of 10^−6 M or less.

[1] abbreviates: CV-1 cells transfected with GAL4-hPPARγ LBD and UAStkLuc, at concentrations of 10^−6 M or less, read-out: agonism of the hPPARγ receptor (activation relative to full agonist rosiglitazone).

As for `Cc1ccc(-c2ccc(C(=O)N(C)C)cc2)cc1Cn1c(C(=O)O)c(-c2ccc(C(C)(C)C)cc2)c2ccccc21` [Example 28, 1-({4′-[(dimethylamino)carbonyl]-4-methyl-3-biphenylyl}methyl)-3-[4-(1,1-dimethylethyl)phenyl]-1H-indole-2-carboxylic acid], under setting [1], the Emax lay within 20 to 80%.

In the case of `CNC(=O)c1cccc(-c2ccc(C)c(Cn3c(C(=O)O)c(-c4ccc(C(C)(C)C)cc4)c4ccccc43)c2)c1` [Example 29, 3-[4-(1,1-dimethylethyl)phenyl]-1-({4-methyl-3′-[(methylamino)carbonyl]-3-biphenylyl}methyl)-1H-indole-2-carboxylic acid], the Emax under setting [1] fell in the range of 20 to 80%.

In the case of `Cc1ccc(-c2cccc(C(=O)NCc3cccs3)c2)cc1Cn1c(C(=O)O)c(-c2ccc(C(C)(C)C)cc2)c2ccccc21` [Example 30, 3-[4-(1,1-dimethylethyl)phenyl]-1-[(4-methyl-3′-{[(2-thienylmethyl)amino]carbonyl}-3-biphenylyl)methyl]-1H-indole-2-carboxylic acid], under setting [1], the Emax fell in the range of 20 to 80%.

Regarding `Cc1ccc(-c2cccc(C(=O)NCCc3cccs3)c2)cc1Cn1c(C(=O)O)c(-c2ccc(C(C)(C)C)cc2)c2ccccc21` [Example 31], the Emax under setting [1] lay within 20 to 80%.

Take `Cc1ccc(-c2ccc(C(=O)NCc3cccs3)cc2)cc1Cn1c(C(=O)O)c(-c2ccc(C(C)(C)C)cc2)c2ccccc21` [Example 32, 3-[4-(1,1-dimethylethyl)phenyl]-1-[(4-methyl-4′-{[(2-thienylmethyl)amino]carbonyl}-3-biphenylyl)methyl]-1H-indole-2-carboxylic acid]: under setting [1], the Emax lay in the range of 20 to 80%.

As for `Cc1ccc(-c2ccc(C(=O)NCCc3cccs3)cc2)cc1Cn1c(C(=O)O)c(-c2ccc(C(C)(C)C)cc2)c2ccccc21` [Example 33, 3-[4-(1,1-dimethylethyl)phenyl]-1-{[4-methyl-4′-({[2-(2-thienyl)ethyl]amino}carbonyl)-3-biphenylyl]methyl}-1H-indole-2-carboxylic acid], the Emax under setting [1] fell in the range of 20 to 80%.

Consider `CC(C)(C)c1ccc(-c2c(C(=O)O)n(Cc3cccc(N4CCN(S(C)(=O)=O)CC4)c3)c3ccccc23)cc1` [Example 34, 3-[4-(1,1-dimethylethyl)phenyl]-1-({3-[4-(methylsulfonyl)-1-piperazinyl]phenyl}methyl)-1H-indole-2-carboxylic acid], for which the Emax under setting [1] was in the range of 20 to 80%.

Turning to `CC(=O)N1CCN(c2cccc(Cn3c(C(=O)O)c(-c4ccc(C(C)(C)C)cc4)c4ccccc43)c2)CC1` [Example 35, 1-{[3-(4-acetyl-1-piperazinyl)phenyl]methyl}-3-[4-(1,1-dimethylethyl)phenyl]-1H-indole-2-carboxylic acid], under setting [1], the Emax lay in the range of 20 to 80%.

Turning to `COC(=O)N1CCN(c2cccc(Cn3c(C(=O)O)c(-c4ccc(C(C)(C)C)cc4)c4ccccc43)c2)CC1` [Example 36, 3-[4-(1,1-dimethylethyl)phenyl]-1-[(3-{4-[(methyloxy)carbonyl]-1-piperazinyl}phenyl)methyl]-1H-indole-2-carboxylic acid], the Emax under setting [1] lay in the range of 20 to 80%.

As for `CC(C)(C)c1ccc(-c2c(C(=O)O)n(Cc3cccc(N4CCN(C(N)=O)CC4)c3)c3ccccc23)cc1` [Example 37, 1-({3-[4-(aminocarbonyl)-1-piperazinyl]phenyl}methyl)-3-[4-(1,1-dimethylethyl)phenyl]-1H-indole-2-carboxylic acid], the Emax under setting [1] is 20 to 80%.

`CC(C)(C)OC(=O)NS(=O)(=O)N1CCN(c2cccc(Cn3c(C(=O)O)c(-c4ccc(C(C)(C)C)cc4)c4ccccc43)c2)CC1` [Example 38, 1-[(3-{4-[({[(1,1-dimethylethyl)oxy]carbonyl}amino)sulfonyl]-1-piperazinyl}phenyl)methyl]-3-[4-(1,1-dimethylethyl)phenyl]-1H-indole-2-carboxylic acid]: the Emax under setting [1] is 20 to 80%.

On to `CC(C)(C)c1ccc(-c2c(C(=O)O)n(Cc3cccc(N4CCN(S(N)(=O)=O)CC4)c3)c3ccccc23)cc1` [Example 39, 1-({3-[4-(aminosulfonyl)-1-piperazinyl]phenyl}methyl)-3-[4-(1,1-dimethylethyl)phenyl]-1H-indole-2-carboxylic acid], for which, under setting [1], the Emax is 20 to 80%.

Turning to `CN(C)CCOc1cc(Cn2c(C(=O)O)c(-c3ccc(C(C)(C)C)cc3)c3ccccc32)cc(OCC2CC2)c1` [Example 40, 1-[(3-[(cyclopropylmethyl)oxy]-5-{[2-(dimethylamino)ethyl]oxy}phenyl)methyl]-3-[4-(1,1-dimethylethyl)phenyl]-1H-indole-2-carboxylic acid], under setting [1], the Emax lay in the range of 20 to 80%.

Regarding `CC(C)(C)c1ccc(-c2c(C(=O)O)n(Cc3cc(OCCN4CCCC4)cc(OCC4CC4)c3)c3ccccc23)cc1` [Example 41, 1-[(3-[(cyclopropylmethyl)oxy]-5-{[2-(1-pyrrolidinyl)ethyl]oxy}phenyl)methyl]-3-[4-(1,1-dimethylethyl)phenyl]-1H-indole-2-carboxylic acid], the Emax under setting [1] fell in the range of 20 to 80%.

Take `CN(C)CCCOc1cc(Cn2c(C(=O)O)c(-c3ccc(C(C)(C)C)cc3)c3ccccc32)cc(OCC2CC2)c1` [Example 43, 1-[(3-[(cyclopropylmethyl)oxy]-5-{[3-(dimethylamino)propyl]oxy}phenyl)methyl]-3-[4-(1,1-dimethylethyl)phenyl]-1H-indole-2-carboxylic acid]: the Emax under setting [1] is 20 to 80%.

Take `CC(C)(C)c1ccc(-c2c(C(=O)O)n(Cc3cccc(N4CCSCC4)c3)c3ccccc23)cc1` [Example 44, 3-[4-(1,1-dimethylethyl)phenyl]-1-{[3-(4-thiomorpholinyl)phenyl]methyl}-1H-indole-2-carboxylic acid]: the Emax under setting [1] lay in the range of 20 to 80%.

Turning to `CC(C)(C)c1ccc(-c2c(C(=O)O)n(Cc3cccc(N4CCS(=O)(=O)CC4)c3)c3ccccc23)cc1` [Example 45, 3-[4-(1,1-dimethylethyl)phenyl]-1-{[3-(1,1-dioxido-4-thiomorpholinyl)phenyl]methyl}-1H-indole-2-carboxylic acid], the Emax under setting [1] lay in the range of 20 to 80%.

For `CCOC(=O)N1CCN(c2cccc(Cn3c(C(=O)O)c(-c4ccc(C(C)(C)C)cc4)c4ccccc43)c2)CC1` [Example 46, 3-[4-(1,1-dimethylethyl)phenyl]-1-[(3-{4-[(ethyloxy)carbonyl]-1-piperazinyl}phenyl)methyl]-1H-indole-2-carboxylic acid], the Emax under setting [1] lay in the range of 20 to 80%.

With `CC(C)OC(=O)N1CCN(c2cccc(Cn3c(C(=O)O)c(-c4ccc(C(C)(C)C)cc4)c4ccccc43)c2)CC1` [Example 47, 3-[4-(1,1-dimethylethyl)phenyl]-1-{[3-(4-{[(1-methylethyl)oxy]carbonyl}-1-piperazinyl)phenyl]methyl}-1H-indole-2-carboxylic acid], under setting [1], the Emax was in the range of 20 to 80%.

For `COCCOC(=O)N1CCN(c2cccc(Cn3c(C(=O)O)c(-c4ccc(C(C)(C)C)cc4)c4ccccc43)c2)CC1` [Example 48, 3-[4-(1,1-dimethylethyl)phenyl]-1-({3-[4-({[2-(methyloxy)ethyl]oxy}carbonyl)-1-piperazinyl]phenyl}methyl)-1H-indole-2-carboxylic acid], the Emax under setting [1] lay in the range of 20 to 80%.

For the compound `COCCOc1cc(Cn2c(C(=O)O)c(-c3ccc(C(C)(C)C)cc3)c3ccccc32)cc(OC(=O)N(C)C)c1` [Example 49, 1-[(3-{[(dimethylamino)carbonyl]oxy}-5-{[2-(methyloxy)ethyl]oxy}phenyl)methyl]-3-[4-(1,1-dimethylethyl)phenyl]-1H-indole-2-carboxylic acid], the Emax (CV-1, read-out: agonism of the hPPARγ receptor (activation relative to full agonist rosiglitazone)) lay in the range of 20 to 80%.
